Results taken from article PMC6923176, “High-Throughput Screening of a 2-Keto-L-Gulonic Acid-Producing Gluconobacter oxydans Strain Based on Related Dehydrogenases” (Frontiers in Bioengineering and Biotechnology, 2019).

Legend:
Assay in all cases: NADH consumption, A340
Type in all cases: biochemical
Settings in all cases: NAD(P)H-dependent reduction; co-substrate, pH and temperature of the Km series not given (unit definition: NADH, pH 7.0, 37 C)
[1] = biological target: T1, CFR-2KR (2-KLG reductase, 2kr) (Citrobacter freundii, UniProt A0A0P8I5D5)
T1 construct: gene ghrB; full length, His-tagged from pET28a(+), EcoRI/SalI, E. coli BL21(DE3), Ni-NTA
T1 sequence (A0A0P8I5D5 1-324): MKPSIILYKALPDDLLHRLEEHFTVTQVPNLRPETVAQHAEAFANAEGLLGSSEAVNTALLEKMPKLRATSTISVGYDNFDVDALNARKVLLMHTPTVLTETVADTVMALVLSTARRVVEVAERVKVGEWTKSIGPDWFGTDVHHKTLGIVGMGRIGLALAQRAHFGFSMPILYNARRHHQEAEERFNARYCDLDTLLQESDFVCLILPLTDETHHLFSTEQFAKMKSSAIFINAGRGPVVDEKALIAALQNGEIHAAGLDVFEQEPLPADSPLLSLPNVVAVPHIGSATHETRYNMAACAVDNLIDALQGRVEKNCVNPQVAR

[2] = biological target: T2, ANI-GLUD (2-KLG reductase, GLUD) (Aspergillus niger, UniProt A0A1D8RK43)
T2 construct: full length, synthetic gene without stop codon, BamHI/SalI in pET28a(+), His-tagged, E. coli BL21(DE3), Ni-NTA
T2 sequence (A0A1D8RK43 1-331): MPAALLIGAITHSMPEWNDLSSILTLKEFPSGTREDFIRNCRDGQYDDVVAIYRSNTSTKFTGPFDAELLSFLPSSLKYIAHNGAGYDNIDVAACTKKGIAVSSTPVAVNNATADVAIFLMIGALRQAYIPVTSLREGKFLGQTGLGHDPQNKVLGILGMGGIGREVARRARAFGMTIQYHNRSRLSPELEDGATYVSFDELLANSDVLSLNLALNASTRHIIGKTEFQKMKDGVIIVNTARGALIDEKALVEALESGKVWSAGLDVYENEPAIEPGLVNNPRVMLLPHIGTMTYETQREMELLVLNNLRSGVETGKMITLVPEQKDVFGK

[3] = biological target: T3, ANI-2KR (2-KLG reductase, 2kr) (Aspergillus niger, UniProt A2Q988)
T3 construct: gene An01g07030; full length, synthetic gene without stop codon, BamHI/SalI in pET28a(+), His-tagged, E. coli BL21(DE3), Ni-NTA
T3 sequence (A2Q988 1-339): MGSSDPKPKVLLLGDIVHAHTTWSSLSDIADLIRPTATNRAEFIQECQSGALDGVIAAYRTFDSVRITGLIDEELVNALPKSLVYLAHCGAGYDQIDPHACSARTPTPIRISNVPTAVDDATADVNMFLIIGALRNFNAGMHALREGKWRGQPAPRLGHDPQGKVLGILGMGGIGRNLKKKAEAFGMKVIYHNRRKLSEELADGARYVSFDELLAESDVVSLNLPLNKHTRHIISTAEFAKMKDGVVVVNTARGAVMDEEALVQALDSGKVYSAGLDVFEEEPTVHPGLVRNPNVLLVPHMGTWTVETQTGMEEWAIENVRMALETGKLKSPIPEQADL

Measured: Km

O=C(O)C(=O)[C@@H](O)[C@H](O)[C@@H](O)CO [2-KLG, 2-keto-L-gulonic acid]
Km and Vmax values for 2-KLG reductases: all assays above
